{
  "source": "paper PMC5011342",
  "about": "“A high throughput drug screening assay to identify compounds that promote oligodendrocyte differentiation using acutely dissociated and purified oligodendrocyte precursor cells” (BMC Research Notes, 2016)",
  "key": {"[1]": {"system": "acutely dissociated and purified rat OPCs", "assay": "Acute OL differentiation assay (MBP expression/cell, immunofluorescent image quantification)", "type": "cell-based", "settings": "sheet \"All OLga data\"", "protocol": "In order to identify compounds with the potential to promote OL differentiation in vivo and thereby enhance remyelination, we first wanted to establish an in vitro assay system that would closely mimic conditions in vivo. To do this, we started by using OPCs acutely isolated from postnatal day 6–7 (P6–7) rat brains by O4 immunopanning. […] OPCs were plated directly onto a biological substrate (PDL/laminin) in 96-well view plates at moderate density to allow for sufficient room to expand processes during differentiation. We plated cells in serum-free medium lacking OPC mitogens (no PDGF or FGF) to allow a basal level of OL differentiation to commence, and as a positive control added thyroid hormone (T3, 40 ng/ml) to accelerate differentiation (Fig. 1, flow scheme).\nFig. 1 Flow scheme of the acute OL differentiation assay. a Purified oligodendrocyte precursor cells (OPCs) were cultured from P7 rat cortex and plated into PDL/laminin pre-coated 96-well plates. b One hour later test compounds were added. c OPC cultures with compound were maintained in culture for an additional 4 days. d On the 5th day with compound, cells were fixed and immunostained with anti-MBP antibodies and DAPI. e Images were acquired with automated fluorescence microscopy and scored phenotypically for OL differentiation (see “Methods” section)\nTo quantify the extent of OL differentiation occurring in treatment conditions, we measured the overall amount of MBP expression/cell (see “Methods” section). Figure 2a depicts the mask created over MBP staining under which the MBP expression was quantified. […]\nAll animal work was carried out in strict accordance with the recommendations in the Guide for the Care and Use of Laboratory Animals of the National Institutes of Health. The protocol was approved by the Institutional Use and Care and Use Committee at the Molecular Medicine Research Institute (Sunnyvale, CA). Animals used for OPC isolation in these studies were euthanized by decapitation. OPCs from brains of P6-P7 Sprague–Dawley rat pups (Charles River, Wilmington, MA, USA) were enriched by immunopanning as previously described (Dugas et al. 2006). Briefly, single cell suspensions were obtained from papain-digested neonatal brains and depleted of mature glial cells by successive panning with RAN-2- and GalC-coated plates, followed by enrichment for OPCs using O4-coated plates. OPCs were plated in differentiation media (DMEM, 100 U/ml Penicillin/100 µg/ml streptomycin, 2 mM L-glutamine, 1 mM Na pyruvate, 5 µg/ml insulin, 5 µg/ml N-acetyl-L-cysteine, 1× trace elements B,10 ng/ml d-Biotin, 100 µg/ml BSA, 100 µg/ml apo-transferrin, 16 µg/ml putrescine, 60 ng/ml progesterone, 40 ng/ml sodium selenite 5 ng/ml forskolin, 10 ng/ml CNTF, 1 ng/ml NT-3).\nAcutely enriched OPCs were plated in differentiation media at 5000 cells/well into PDL/laminin coated 96-well view plates and centrifuged at 200×g to facilitate cell attachment, survival, and even distribution of OPCs. OPCs were pre-incubated for 1–2 h at 37 °C in 10 % CO2, followed by the addition of test compounds in quadruplicate. Controls were added in eight replicate wells, negative control = 0.1 % DMSO; positive control = 40 ng/ml T3. The day of OPC plating was considered DIV0. On DIV4, cells were fixed, immunostained for myelin basic protein (MBP) expression, imaged and quantified as described below."}, "[2]": {"system": "expanded OPCs", "assay": "cells", "settings": "for viability at 0.1 µM / viability at 1 µM / viability at 10 µM: Rattus norvegicus, 72 h", "protocol": "Having established a consistent assay for measuring OL differentiation in vitro, the next step was to utilize this assay to assess the ability of a wide array of compounds to promote OL differentiation. Prior to library screening, we first established the maximum non-toxic dose of each compound in the library. […] Therefore, we added each compound in the NIH clinical collection (NCC) library to OPCs at 10, 1, and 0.1 µM concentrations. Three days later, we assessed viability of the treated cells by measuring AlamarBlue fluorescence, a measure of cell viability (see “Methods” section). […] Appropriately, we established three sets of screening concentrations for library compounds: non-toxic compounds were tested at 10 and 2 µM, slightly toxic compounds (only toxic at 10 µM) were tested at 2 and 0.4 µM, and very toxic compounds were tested at 0.4 and 0.08 µM.\nOPCs were expanded in vitro by seeding into PDL-coated tissue culture flasks at 1000–2000 cells/cm^2 in differentiation media supplemented with 10 ng/ml PDGF-AA. Proliferating OPCs were fed every 2–3 days and supplemented with 2–3× concentration of PDGF as needed to prevent OPC differentiation. After 6–7 days of proliferation, OPCs were harvested by trypsinization, plated into PDL-coated 96-well Falcon plates and centrifuged at 200×g to facilitate cell attachment, survival, and even distribution of cells. Expanded OPCs were seeded in differentiation media at 10,000 cells/well and incubated for 2 h at 37 °C, 10 % CO2 prior to addition of compounds. The NCC library was diluted and added to cells at 10, 1, and 0.1 µM; each concentration was tested in quadruplicate. As a positive control for the induction of toxicity, 5 ng/ml tunicamycin was added to 8 wells in each plate. Three days later, a 1:10 dilution of alamarBlue® (AB) was added to each well and cells were incubated 4 h at 37 °C, 10 % CO2. AB fluorescence was measured using a PerkinElmer Victor II fluorescence microplate reader (PerkinElmer, Waltham, MA) with 560 nm excitation/590 nm emission filters. For library screening, the highest concentration of each compound was adjusted to a minimally toxic concentration based on this toxicity data. Compounds were additionally tested at a second concentration that was 1/5th of the top concentration. The final concentration of DMSO in each well was 0.1 %."}, "[3]": {"settings": "read-out: 0.1 µM (% DMSO), alamarBlue viability, NCC library compound at 0.1 µM, sheet \"All Tox data\""}, "[4]": {"settings": "read-out: 1 µM (% DMSO), alamarBlue viability, NCC library compound at 1 µM, sheet \"All Tox data\""}, "[5]": {"settings": "read-out: 10 µM (% DMSO), alamarBlue viability, NCC library compound at 10 µM, sheet \"All Tox data\""}, "[6]": {"settings": "Rattus norvegicus, 2 uM test compound, relative to quetiapine, read-out: OL differentiation, 2 uM (% Quet)"}, "[7]": {"settings": "Rattus norvegicus, 10 uM test compound, relative to quetiapine, read-out: OL differentiation, 10 uM (% Quet)"}, "[8]": {"settings": "read-out: 0.1 µM (% DMSO), alamarBlue viability of expanded OPCs, compound at 0.1 µM, sheet All Tox data"}, "[9]": {"settings": "read-out: 1 µM (% DMSO), alamarBlue viability of expanded OPCs, compound at 1 µM, sheet All Tox data"}, "[10]": {"settings": "read-out: 10 µM (% DMSO), alamarBlue viability of expanded OPCs, compound at 10 µM, sheet All Tox data"}},
  "note": "Read-outs that look alike come from different tables or passages of the source.",
  "data": [
    {"smiles": "C[C@H]1C[C@H]2[C@@H]3CCC4=CC(=O)C=C[C@]4(C)[C@@]3(Cl)[C@@H](O)C[C@]2(C)[C@@]1(O)C(=O)CO", "note": "[Beclomethasone]", "values": [
      {"measurement": "2 uM (% Quet)", "setting": "[1]; test compound at 2 uM, MBP expression relative to quetiapine, NCC library screen", "value": -121.4, "unit": "% Quet"},
      {"measurement": "2 uM (% Quet)", "setting": "[1]; test compound at 2 uM, NCC library screen, relative to quetiapine", "value": -1.4, "unit": "% Quet"},
      {"measurement": "10 uM (% Quet)", "setting": "[1]; test compound at 10 uM, MBP expression relative to quetiapine, NCC library screen", "value": -191.3, "unit": "% Quet"},
      {"measurement": "10 uM (% Quet)", "setting": "[1]; test compound at 10 uM, NCC library screen, relative to quetiapine", "value": -5.2, "unit": "% Quet"},
      {"measurement": "0.1 µM (% DMSO)", "setting": "[2]", "value": 90.7, "unit": "% DMSO"},
      {"measurement": "1 µM (% DMSO)", "setting": "[2]", "value": 90.4, "unit": "% DMSO"},
      {"measurement": "10 µM (% DMSO)", "setting": "[2]", "value": 81.7, "unit": "% DMSO"},
      {"measurement": "0.1 µM (% DMSO)", "setting": "[2]; alamarBlue viability, NCC library compound at 0.1 µM, sheet \"All Tox data\"", "value": 110.9, "unit": "% DMSO"},
      {"measurement": "1 µM (% DMSO)", "setting": "[2]; alamarBlue viability, NCC library compound at 1 µM, sheet \"All Tox data\"", "value": 114.8, "unit": "% DMSO"},
      {"measurement": "10 µM (% DMSO)", "setting": "[2]; alamarBlue viability, NCC library compound at 10 µM, sheet \"All Tox data\"", "value": 117.6, "unit": "% DMSO"}
    ]},
    {"smiles": "O=c1c2ccccc2[se]n1-c1ccccc1", "note": "[Ebselen]", "values": [
      {"measurement": "activation at 0.08 µM", "setting": "[1]; Rattus norvegicus, test compound at 0.08 uM, NCC library screen, relative to quetiapine, read-out: 0.08 uM (% Quet)", "value": 131, "unit": "%"},
      {"measurement": "activation at 0.4 µM", "setting": "[1]; Rattus norvegicus, test compound at 0.4 uM, NCC library screen, relative to quetiapine, read-out: 0.4 uM (% Quet)", "value": -95.7, "unit": "%"},
      {"measurement": "viability at 0.1 µM", "setting": "[2]; [3]", "value": 61.7, "unit": "%"},
      {"measurement": "viability at 1 µM", "setting": "[2]; [4]", "value": 30.7, "unit": "%"},
      {"measurement": "viability at 10 µM", "setting": "[2]; [5]", "value": 10.1, "unit": "%"}
    ]},
    {"smiles": "CC(Oc1c(Cl)cccc1Cl)C1=NCCN1", "note": "(stereo not shown) [lofexidine]", "values": [
      {"measurement": "activation at 2 µM", "setting": "[1]; Rattus norvegicus, test compound at 2 uM, NCC library screen, relative to quetiapine, read-out: 2 uM (% Quet)", "value": 9.5, "unit": "%"},
      {"measurement": "activation at 10 µM", "setting": "[1]; Rattus norvegicus, test compound at 10 uM, NCC library screen, relative to quetiapine, read-out: 10 uM (% Quet)", "value": 13.1, "unit": "%"},
      {"measurement": "viability at 0.1 µM", "setting": "[2]; [3]", "value": 88.5, "unit": "%"},
      {"measurement": "viability at 1 µM", "setting": "[2]; [4]", "value": 96, "unit": "%"},
      {"measurement": "viability at 10 µM", "setting": "[2]; [5]", "value": 80.6, "unit": "%"}
    ]},
    {"smiles": "O=C(c1ccc(F)cc1)C1CCN(CCn2c(=S)[nH]c3ccccc3c2=O)CC1", "note": "[Altanserin]", "values": [
      {"measurement": "activation at 2 µM", "setting": "[1]; [6]", "value": -4, "unit": "%"},
      {"measurement": "activation at 10 µM", "setting": "[1]; [7]", "value": -10, "unit": "%"},
      {"measurement": "viability at 0.1 µM", "setting": "[2]; [3]", "value": 107, "unit": "%"},
      {"measurement": "viability at 1 µM", "setting": "[2]; [4]", "value": 94.1, "unit": "%"},
      {"measurement": "viability at 10 µM", "setting": "[2]; [5]", "value": 56, "unit": "%"}
    ]},
    {"smiles": "Nc1c2c(nc3ccccc13)CCCC2", "note": "[Tacrine]", "values": [
      {"measurement": "activation at 2 µM", "setting": "[1]; [6]", "value": -10.2, "unit": "%"},
      {"measurement": "activation at 10 µM", "setting": "[1]; [7]", "value": 2.8, "unit": "%"},
      {"measurement": "viability at 0.1 µM", "setting": "[2]; [8]", "value": 80.5, "unit": "%"},
      {"measurement": "viability at 1 µM", "setting": "[2]; [9]", "value": 80, "unit": "%"},
      {"measurement": "viability at 10 µM", "setting": "[2]; [10]", "value": 77.8, "unit": "%"}
    ]},
    {"smiles": "NS(=O)(=O)c1cc2c(cc1Cl)NCNS2(=O)=O", "note": "[Hydrochlorothiazide]", "values": [
      {"measurement": "activation at 2 µM", "setting": "[1]; Rattus norvegicus, test compound at 2 uM, MBP expression relative to quetiapine, NCC library screen, read-out: 2 uM (% Quet)", "value": -36, "unit": "%"},
      {"measurement": "activation at 10 µM", "setting": "[1]; Rattus norvegicus, test compound at 10 uM, MBP expression relative to quetiapine, NCC library screen, read-out: 10 uM (% Quet)", "value": -46, "unit": "%"},
      {"measurement": "0.1 µM (% DMSO)", "setting": "[2]; alamarBlue viability of expanded OPCs, compound at 0.1 µM, relative to DMSO control", "value": 96.6, "unit": "% DMSO"},
      {"measurement": "1 µM (% DMSO)", "setting": "[2]; alamarBlue viability of expanded OPCs, compound at 1 µM, relative to DMSO control", "value": 97.1, "unit": "% DMSO"},
      {"measurement": "10 µM (% DMSO)", "setting": "[2]; alamarBlue viability of expanded OPCs, compound at 10 µM, relative to DMSO control", "value": 90.6, "unit": "% DMSO"}
    ]},
    {"smiles": "O=C(O)Cc1ccccc1Nc1c(Cl)cccc1Cl", "note": "[Diclofenac]", "values": [
      {"measurement": "activation at 2 µM", "setting": "[1]; [6]", "value": 4.8, "unit": "%"},
      {"measurement": "activation at 10 µM", "setting": "[1]; [7]", "value": 3.4, "unit": "%"},
      {"measurement": "viability at 0.1 µM", "setting": "[2]; [8]", "value": 90.1, "unit": "%"},
      {"measurement": "viability at 1 µM", "setting": "[2]; [9]", "value": 95.5, "unit": "%"},
      {"measurement": "viability at 10 µM", "setting": "[2]; [10]", "value": 88.8, "unit": "%"}
    ]}
  ]
}
